Test results published in ChEMBL document CHEMBL6153155, “Novel Cyclohexyl Amido Acid Antagonists of Lysophosphatidic Acid Type 1 Receptor for the Treatment of Pulmonary Fibrosis” (ACS Med Chem Lett, 2025).

Legend:
[1] = Lipophilicity, logD of compound at pH 7.4 by chromatographic hydrophobicity index method; format: physicochemical; conditions: buffer
[2] = Metabolic stability in female C57BL/6J mouse liver microsomes assessed as intrinsic clearance measured per mg of protein at 0.5 uM measured upto 45 mins in presence of NADPH regenerating system by HPLC-MS/MS analysis; format: ADME, Microsome; conditions: read-out: CLH
[3] = Metabolic stability in human liver microsomes assessed as intrinsic clearance measured per mg of protein at 0.5 uM measured upto 45 mins in presence of NADPH regenerating system by HPLC-MS/MS analysis; format: ADME, Microsome; conditions: read-out: CLH
BSEP = BSEP (Homo sapiens, UniProt O95342); test: Inhibition of BSEP in cryopreserved sandwich-cultured human hepatocytes by measuring reduction in TCA biliary clearance using taurocholic acid as substrate at 50 uM relative to control; format: cell-based, Hepatocyte; conditions: cryopreserved sandwich-cultured hepatocytes, probe taurocholic acid
[4] = Drug uptake in mouse lung at 30 mg/kg, po measured upto 24 hrs; format: ADME, organism-based; conditions: in vivo
Bile salt export pump = Bile salt export pump (Homo sapiens, UniProt O95342); test: Inhibition of BSEP in cryopreserved sandwich-cultured human hepatocytes by measuring reduction in TCA biliary clearance using taurocholic acid as substrate; format: cell-based, Hepatocyte
Mus musculus = test: Inhibition of LPA-stimulated histamine release in male CD1 mouse plasma assessed as effective dose administered as po dose pretreated for 30 mins followed by LPA addition measured after 2 mins by enzyme immunoassay; format: functional; conditions: 32 min
[5] = molecular target: Phosphatidylcholine translocator ABCB4 (Homo sapiens, UniProt P21439); test: Inhibition of MDR3 in human hepatocytes in the presence of TCA incubated for 3 hrs by LC-MS/MS; format: cell-based, Hepatocyte
Phosphatidylcholine translocator ABCB4, sequence (P21439 whole entry): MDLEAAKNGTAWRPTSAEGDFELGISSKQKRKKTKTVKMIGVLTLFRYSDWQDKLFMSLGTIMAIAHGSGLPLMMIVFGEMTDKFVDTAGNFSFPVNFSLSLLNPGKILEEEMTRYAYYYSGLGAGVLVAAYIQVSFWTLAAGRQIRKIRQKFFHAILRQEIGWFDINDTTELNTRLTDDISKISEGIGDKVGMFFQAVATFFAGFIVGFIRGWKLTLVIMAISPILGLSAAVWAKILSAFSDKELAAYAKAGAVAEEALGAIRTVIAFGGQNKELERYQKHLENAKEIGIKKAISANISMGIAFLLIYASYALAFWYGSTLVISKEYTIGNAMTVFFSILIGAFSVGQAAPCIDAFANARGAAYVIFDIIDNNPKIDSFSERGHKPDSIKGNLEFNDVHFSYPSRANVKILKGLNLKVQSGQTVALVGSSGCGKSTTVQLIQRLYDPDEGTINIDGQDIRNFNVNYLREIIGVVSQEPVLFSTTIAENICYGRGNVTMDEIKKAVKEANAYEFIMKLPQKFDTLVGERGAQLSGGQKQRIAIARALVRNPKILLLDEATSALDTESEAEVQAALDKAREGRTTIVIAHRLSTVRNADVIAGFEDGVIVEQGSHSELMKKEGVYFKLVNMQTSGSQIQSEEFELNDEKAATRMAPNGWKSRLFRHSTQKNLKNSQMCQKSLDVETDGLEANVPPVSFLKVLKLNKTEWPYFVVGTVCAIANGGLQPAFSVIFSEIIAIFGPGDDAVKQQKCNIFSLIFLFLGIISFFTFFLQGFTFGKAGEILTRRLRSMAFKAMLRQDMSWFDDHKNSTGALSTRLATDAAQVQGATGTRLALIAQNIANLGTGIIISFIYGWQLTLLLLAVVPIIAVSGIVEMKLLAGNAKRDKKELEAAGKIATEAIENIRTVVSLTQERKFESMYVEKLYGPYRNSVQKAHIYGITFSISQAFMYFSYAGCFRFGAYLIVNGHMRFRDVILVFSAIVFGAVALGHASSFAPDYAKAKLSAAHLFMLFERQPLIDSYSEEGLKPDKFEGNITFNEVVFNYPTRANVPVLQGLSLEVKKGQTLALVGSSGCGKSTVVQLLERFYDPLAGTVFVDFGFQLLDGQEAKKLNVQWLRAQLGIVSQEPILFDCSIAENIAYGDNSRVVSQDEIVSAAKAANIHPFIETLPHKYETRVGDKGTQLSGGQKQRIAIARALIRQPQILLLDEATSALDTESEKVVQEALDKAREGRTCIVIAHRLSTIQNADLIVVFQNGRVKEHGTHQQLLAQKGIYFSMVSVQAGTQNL

[6] = molecular target: ATP-binding cassette sub-family C member 2 (Homo sapiens, UniProt Q92887); test: Inhibition of MRP2 (unknown origin) in presence of ATP by membrane vesicular transport assay; format: cell membranes, Membrane vesicle
ATP-binding cassette sub-family C member 2, sequence (Q92887 whole entry): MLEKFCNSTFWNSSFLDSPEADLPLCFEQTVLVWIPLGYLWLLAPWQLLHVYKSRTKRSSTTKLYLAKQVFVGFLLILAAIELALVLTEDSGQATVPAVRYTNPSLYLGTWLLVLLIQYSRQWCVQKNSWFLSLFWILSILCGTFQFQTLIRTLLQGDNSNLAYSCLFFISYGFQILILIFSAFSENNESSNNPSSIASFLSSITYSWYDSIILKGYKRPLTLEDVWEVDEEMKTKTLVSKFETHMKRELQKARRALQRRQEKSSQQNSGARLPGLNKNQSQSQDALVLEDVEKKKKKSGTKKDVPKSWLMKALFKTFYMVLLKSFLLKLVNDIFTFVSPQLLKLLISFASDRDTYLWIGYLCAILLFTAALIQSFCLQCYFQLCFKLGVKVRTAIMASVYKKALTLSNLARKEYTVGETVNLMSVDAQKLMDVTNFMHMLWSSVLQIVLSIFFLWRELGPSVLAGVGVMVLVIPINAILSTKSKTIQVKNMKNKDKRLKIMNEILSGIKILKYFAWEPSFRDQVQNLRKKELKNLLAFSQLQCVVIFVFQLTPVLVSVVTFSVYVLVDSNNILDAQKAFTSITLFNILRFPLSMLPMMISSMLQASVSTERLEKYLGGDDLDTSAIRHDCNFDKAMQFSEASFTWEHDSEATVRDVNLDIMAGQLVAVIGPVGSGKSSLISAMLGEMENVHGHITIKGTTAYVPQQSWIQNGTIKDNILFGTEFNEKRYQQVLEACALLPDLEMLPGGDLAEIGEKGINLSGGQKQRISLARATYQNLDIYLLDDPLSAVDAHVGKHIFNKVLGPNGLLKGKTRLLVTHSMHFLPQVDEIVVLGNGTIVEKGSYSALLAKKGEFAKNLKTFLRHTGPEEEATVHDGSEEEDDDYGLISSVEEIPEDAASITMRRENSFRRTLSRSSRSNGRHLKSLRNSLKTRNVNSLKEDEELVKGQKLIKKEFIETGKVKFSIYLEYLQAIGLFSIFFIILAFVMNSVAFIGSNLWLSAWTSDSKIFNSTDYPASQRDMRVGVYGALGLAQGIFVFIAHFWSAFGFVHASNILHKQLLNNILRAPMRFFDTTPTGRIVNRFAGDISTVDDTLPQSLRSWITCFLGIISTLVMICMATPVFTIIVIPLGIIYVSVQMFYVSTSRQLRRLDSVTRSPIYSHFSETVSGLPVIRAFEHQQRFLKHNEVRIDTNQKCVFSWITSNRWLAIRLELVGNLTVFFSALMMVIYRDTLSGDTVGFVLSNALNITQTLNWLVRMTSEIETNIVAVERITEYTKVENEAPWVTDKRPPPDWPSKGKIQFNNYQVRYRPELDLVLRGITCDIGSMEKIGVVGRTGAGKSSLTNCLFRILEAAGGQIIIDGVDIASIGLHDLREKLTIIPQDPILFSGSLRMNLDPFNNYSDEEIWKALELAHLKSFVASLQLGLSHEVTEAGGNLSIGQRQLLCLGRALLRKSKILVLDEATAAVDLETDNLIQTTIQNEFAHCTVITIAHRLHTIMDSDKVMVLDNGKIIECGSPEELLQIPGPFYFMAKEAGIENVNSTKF

[7] = molecular target: ATP-binding cassette sub-family C member 3 (Homo sapiens, UniProt O15438); test: Inhibition of MRP3 (unknown origin) in presence of ATP by membrane vesicular transport assay; format: cell membranes, Membrane vesicle
ATP-binding cassette sub-family C member 3, sequence (O15438 whole entry): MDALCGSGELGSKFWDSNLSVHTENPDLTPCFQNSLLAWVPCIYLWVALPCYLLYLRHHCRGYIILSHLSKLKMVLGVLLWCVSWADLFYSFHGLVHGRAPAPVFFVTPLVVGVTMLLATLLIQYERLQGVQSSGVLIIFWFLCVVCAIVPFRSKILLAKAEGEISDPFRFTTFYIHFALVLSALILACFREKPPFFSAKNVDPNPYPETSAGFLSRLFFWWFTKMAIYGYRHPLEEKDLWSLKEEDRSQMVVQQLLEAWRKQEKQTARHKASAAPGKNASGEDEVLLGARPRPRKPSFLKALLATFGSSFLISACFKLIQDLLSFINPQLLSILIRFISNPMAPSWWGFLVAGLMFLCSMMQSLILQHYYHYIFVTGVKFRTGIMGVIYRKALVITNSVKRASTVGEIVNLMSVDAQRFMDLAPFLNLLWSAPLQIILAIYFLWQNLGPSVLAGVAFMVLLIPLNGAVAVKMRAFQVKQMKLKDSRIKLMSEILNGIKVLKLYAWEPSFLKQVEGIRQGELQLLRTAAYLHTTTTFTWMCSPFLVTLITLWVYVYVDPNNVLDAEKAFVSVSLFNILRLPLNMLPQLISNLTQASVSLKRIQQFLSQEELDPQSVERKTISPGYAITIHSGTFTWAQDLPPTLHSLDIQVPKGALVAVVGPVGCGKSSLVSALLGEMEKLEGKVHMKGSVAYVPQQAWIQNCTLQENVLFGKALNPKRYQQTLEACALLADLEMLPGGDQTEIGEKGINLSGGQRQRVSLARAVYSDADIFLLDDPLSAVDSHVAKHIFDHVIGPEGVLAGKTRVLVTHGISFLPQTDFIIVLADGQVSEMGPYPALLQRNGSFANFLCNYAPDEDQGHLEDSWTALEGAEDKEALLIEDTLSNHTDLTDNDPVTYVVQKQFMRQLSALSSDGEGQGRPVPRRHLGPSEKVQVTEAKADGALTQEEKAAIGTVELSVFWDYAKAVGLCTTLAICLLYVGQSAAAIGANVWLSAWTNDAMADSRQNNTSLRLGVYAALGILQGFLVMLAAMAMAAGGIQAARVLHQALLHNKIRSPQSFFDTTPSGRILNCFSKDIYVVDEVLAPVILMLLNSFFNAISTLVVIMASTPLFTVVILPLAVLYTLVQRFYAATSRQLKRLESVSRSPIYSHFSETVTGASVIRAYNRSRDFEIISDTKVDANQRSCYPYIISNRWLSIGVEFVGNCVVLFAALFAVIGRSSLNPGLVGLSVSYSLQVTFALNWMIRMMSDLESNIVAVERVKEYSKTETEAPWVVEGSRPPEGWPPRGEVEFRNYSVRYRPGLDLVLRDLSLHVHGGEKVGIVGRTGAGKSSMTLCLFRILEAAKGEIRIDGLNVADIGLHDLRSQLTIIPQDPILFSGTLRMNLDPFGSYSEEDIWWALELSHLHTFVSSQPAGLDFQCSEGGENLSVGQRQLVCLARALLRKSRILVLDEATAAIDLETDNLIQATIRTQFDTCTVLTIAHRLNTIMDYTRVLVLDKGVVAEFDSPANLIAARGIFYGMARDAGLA

[8] = molecular target: T1, Solute carrier organic anion transporter family member 1B1 (Homo sapiens, UniProt Q9Y6L6); test: Inhibition of human OATP1B1 in HEK293 cells; format: cell-based
T1 sequence (Q9Y6L6 whole entry): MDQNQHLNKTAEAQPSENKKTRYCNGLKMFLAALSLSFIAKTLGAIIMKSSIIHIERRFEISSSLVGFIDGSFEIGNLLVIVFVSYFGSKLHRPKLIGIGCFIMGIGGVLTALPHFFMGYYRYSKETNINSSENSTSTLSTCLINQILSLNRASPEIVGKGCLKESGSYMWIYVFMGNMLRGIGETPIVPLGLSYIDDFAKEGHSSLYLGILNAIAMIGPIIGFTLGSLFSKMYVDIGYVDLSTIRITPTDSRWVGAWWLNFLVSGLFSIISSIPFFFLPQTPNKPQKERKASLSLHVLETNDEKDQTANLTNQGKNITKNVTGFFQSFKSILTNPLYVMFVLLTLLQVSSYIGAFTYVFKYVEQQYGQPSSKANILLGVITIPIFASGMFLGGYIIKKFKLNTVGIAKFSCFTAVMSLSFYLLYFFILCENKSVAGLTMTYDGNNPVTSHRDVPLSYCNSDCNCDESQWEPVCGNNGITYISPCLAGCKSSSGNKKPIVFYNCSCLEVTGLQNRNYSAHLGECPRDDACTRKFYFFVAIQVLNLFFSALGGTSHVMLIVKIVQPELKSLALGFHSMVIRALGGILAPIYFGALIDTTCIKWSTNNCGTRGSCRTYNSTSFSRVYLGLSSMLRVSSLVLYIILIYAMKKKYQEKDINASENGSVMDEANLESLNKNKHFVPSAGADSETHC

[9] = Toxicity in cynomolgus monkey assessed as fasciculation at 210 mg/kg/day, po bid measured after 4 days; format: organism-based, Macaca fascicularis; conditions: in vivo, 96 h, time 4 day
[10] = Toxicity in cynomolgus monkey assessed as abnormally cold to touch at 210 mg/kg/day, po bid measured after 4 days; format: organism-based, Macaca fascicularis; conditions: in vivo, 96 h, time 4 day
[11] = Toxicity in cynomolgus monkey assessed as partially closed eyelids at 210 mg/kg/day, po bid measured after 4 days; format: organism-based, Macaca fascicularis; conditions: in vivo, 96 h, time 4 day
[12] = Toxicity in cynomolgus monkey assessed as abnormal vocalization at 210 mg/kg/day, po bid measured after 4 days; format: organism-based, Macaca fascicularis; conditions: in vivo, 96 h, time 4 day
[13] = Toxicity in cynomolgus monkey assessed as appearance of sinusoidal leukocytosis in liver at 50 mg/kg, po bid by microscopic analysis; format: organism-based, Macaca fascicularis; conditions: in vivo
[14] = Clearance in female C57BL/6J mouse at 2 mg/kg, iv measured after 24 hrs by UPLC-MS/MS analysis; format: ADME, organism-based; conditions: in vivo
[15] = Volume of distribution at steady state in female C57BL/6J mouse at 2 mg/kg, iv measured after 24 hrs by UPLC-MS/MS analysis; format: ADME, organism-based; conditions: in vivo, read-out: Vdss
[16] = Half life in female C57BL/6J mouse at 2 mg/kg, iv measured after 24 hrs by UPLC-MS/MS analysis; format: ADME, organism-based; conditions: in vivo
[17] = Total Cmax in female C57BL/6J mouse plasma at 30 mg/kg, po measured after 24 hrs by UPLC-MS/MS analysis; format: ADME, organism-based
[18] = Unbound Cmax in female C57BL/6J mouse plasma at 30 mg/kg, po measured after 24 hrs by UPLC-MS/MS analysis; format: ADME, organism-based; conditions: in vivo
[19] = Total AUClast in female C57BL/6J mouse plasma at 30 mg/kg, po measured after 24 hrs by UPLC-MS/MS analysis; format: ADME, organism-based; conditions: in vivo
[20] = Unbound AUClast in female C57BL/6J mouse plasma at 30 mg/kg, po measured after 24 hrs by UPLC-MS/MS analysis; format: ADME, organism-based; conditions: in vivo
[21] = Tlast in female C57BL/6J mouse plasma at 30 mg/kg, po measured after 24 hrs by UPLC-MS/MS analysis; format: ADME, organism-based; conditions: in vivo
[22] = Total Cmax in female C57BL/6J mouse lung at 30 mg/kg, po measured after 24 hrs by UPLC-MS/MS analysis; format: ADME, organism-based
[23] = Total AUClast in female C57BL/6J mouse lung at 30 mg/kg, po measured after 24 hrs by UPLC-MS/MS analysis; format: ADME, organism-based; conditions: in vivo
[24] = Unbound AUClast in female C57BL/6J mouse lung at 30 mg/kg, po measured after 24 hrs by UPLC-MS/MS analysis; format: ADME, organism-based; conditions: in vivo

- chromatographic logD [1]: 1.76
- microsomal CLint at 0.5 µM [2]: 4 µL/min/mg
- microsomal CLint at 0.5 µM [3]: 7 µL/min/mg
- Drug uptake [4]: Active
- IC50 [5]: 251 µM
- IC50 [6]: > 200 µM
- IC50 [7]: 25.1 µM
- IC50 [8]: 5.01 µM
- clearance [14]: 1.73 mL/min/kg
- Vd [15]: 0.16 L/kg
- half-life [16]: 110 min
- Cmax [17]: 99.4 µg/mL
- fCmax [18]: 1479 ng/mL
- AUClast [19]: 247000 h/ng/mL
- fAUClast [20]: 3675 h/ng/mL
- Tlast [21]: 24 h
- Cmax [22]: 41300 ng/mL
- AUClast [23]: 123000 h/ng/mL
- fAUClast [24]: 4624 h/ng/mL
Compound: Cc1nc(-c2onc(C)c2NC(=O)O[C@H](C)c2ccccc2Cl)ccc1NC(=O)[C@H]1CCCC[C@@H]1C(=O)O
- inhibition at 50 µM (BSEP): 50%
- IC50 (Bile salt export pump): 39.8 µM
- ED50 (Mus musculus): 0.04 mg/kg
- Activity [9]: Toxic
- Activity [10]: Toxic
- Activity [11]: Toxic
- Activity [12]: Toxic
- Activity [13]: Toxic
